These results are taken from patent publication US12589087B2, “Enantiomer selective action on neurotransmission” (The Board of Trustees of the Leland Stanford Junior …, priority 2021, dated 2026).

For this assay, the target named is T1, human glutaminase GLS1 (Homo sapiens, UniProt O94925).
T1 construct: purchased Sigma SRP0516
T1 sequence (O94925 55-669): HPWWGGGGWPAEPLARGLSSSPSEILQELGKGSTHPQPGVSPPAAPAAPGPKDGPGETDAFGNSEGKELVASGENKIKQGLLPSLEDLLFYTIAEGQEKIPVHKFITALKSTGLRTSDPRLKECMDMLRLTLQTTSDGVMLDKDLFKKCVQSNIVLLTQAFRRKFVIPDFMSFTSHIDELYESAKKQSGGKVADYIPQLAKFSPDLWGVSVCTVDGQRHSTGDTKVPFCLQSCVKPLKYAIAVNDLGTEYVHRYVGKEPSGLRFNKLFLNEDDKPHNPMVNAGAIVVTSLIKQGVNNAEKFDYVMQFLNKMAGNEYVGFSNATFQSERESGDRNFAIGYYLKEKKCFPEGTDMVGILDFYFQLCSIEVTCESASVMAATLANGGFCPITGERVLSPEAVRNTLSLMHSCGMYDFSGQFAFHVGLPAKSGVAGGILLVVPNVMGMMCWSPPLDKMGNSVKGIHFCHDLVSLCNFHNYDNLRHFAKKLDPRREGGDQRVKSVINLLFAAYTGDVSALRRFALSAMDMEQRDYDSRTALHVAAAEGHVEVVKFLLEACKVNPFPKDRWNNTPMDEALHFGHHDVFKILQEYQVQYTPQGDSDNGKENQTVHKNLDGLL
Nature of the assay: Catalysis of 2MeGln hydrolysis by GLS1 glutaminase. The assay is classed as biochemical. The conditions noted are these: 10 mM substrate. As to the method:
The procedure was adapted from an existing protocol. To a reaction mixture in a 1.5 mL microcentrifuge tube containing 10 mM rac-2MeGln or L-Gln-^13C2 in 100 mM phosphate pH 7.4 buffer made in 20% atom ^18O water, recombinant GLS1 (final concentration: 5 ng/mL) was added. The tubes were incubated in a preheated thermomixer at 37° C. and periodically shaken at 600 rpm (30 s on, 30 s off). 5 μL aliquots were collected in triplicate every 5 min and immediately diluted with 195 μL of cold 60% ACN containing 10 μM Glu-d5 and Gln-d5 as internal standards in a 96 well plate. After collecting all samples, the plate was shaken at 1000 rpm for 5 min at room temperature, and then stored at −80° C. Before analysis the plate was thawed and 10 μL aliquots of the extracted reaction mixtures were diluted with 190 μL of 90% acetonitrile.
The quantification of the newly formed 2MeGlu in the presence of the preexisting trace amounts was performed in the following way. Peak area ratio of Glu-^13C2 to Glu-^13C2^18O was calculated in all samples containing Glu-^13C2. The mean ratio value was then applied to calculate the hypothetical peak area of the newly formed 2MeGlu based on the directly measured 2MeGlu-^18O peak area. The ratio of the newly formed 2MeGlu peak area and the total 2MeGlu peak area was applied to calculate the concentration of the newly formed 2MeGlu from the total 2MeGlu concentration determined directly using the calibration curve.

In the case of `CC(N)(CCC(N)=O)C(=O)O` (racemic) [rac-2MeGln, rac-2-methylglutamine], the “apparent GLS1 reaction rate, lower compared to that of Gln” value is reported as “approximately 35 fold”. Also, for the setting “5 ng/mL enzyme, phosphate pH 7.4”, the “apparent reaction rate of GLS1 hydrolysis” value is 1.9 µM/min.
